Paper PMC8699473, “An Easily Expandable Multi-Drug LC-MS Assay for the Simultaneous Quantification of 57 Oral Antitumor Drugs in Human Plasma” (Cancers, 2021)

Experiments:
[1] = Autosampler stability of ready for injection samples; format: physicochemical, human
[2] = Freeze-thaw stability in spiked pooled human plasma; format: physicochemical
[3] = design: method as in supplement references [1-55] as printed per drug; settings: minimum steady-state blood plasma concentration after multiple dose administration; ref supplement references [1-55] per drug; cited from earlier work

Row | SMILES | Autosampler (24h, 4°C) Accuracy [%] ([1]; validation standard 2xLLOV) | Autosampler (72h, 4°C) Accuracy [%] ([1]; validation standard 2xLLOV) | Autosampler (24h, 4°C) Accuracy [%] ([1]; validation standard LLOV) | Autosampler (72h, 4°C) Accuracy [%] ([1]; validation standard LLOV) | Autosampler (24h, 4°C) Accuracy [%] ([1]; validation standard MOV) | Autosampler (72h, 4°C) Accuracy [%] ([1]; validation standard MOV) | Autosampler (24h, 4°C) Accuracy [%] ([1]; validation standard ULOV) | Autosampler (72h, 4°C) Accuracy [%] ([1]; validation standard ULOV) | Freeze-Thaw Accuracy [%] ([2]; validation standard 2xLLOV) | Freeze-Thaw Accuracy [%] ([2]; validation standard LLOV) | Freeze-Thaw Accuracy [%] ([2]; validation standard MOV) | Freeze-Thaw Accuracy [%] ([2]; validation standard ULOV) | cmin [3] [ng/mL]
1 | COC(=O)N[C@@H](C)CNc1nccc(-c2cn(C(C)C)nc2-c2cc(Cl)cc(NS(C)(=O)=O)c2F)n1 [Encorafenib] | 102.4 | 102.6 | 87.7 | 98.2 | 112.5 | 110.5 | 100.5 | 102.4 | 94.9 | 90.4 | 101.4 | 98.7 | 23
2 | CC(C)(C)c1nc(-c2cccc(NS(=O)(=O)c3c(F)cccc3F)c2F)c(-c2ccnc(N)n2)s1 [Dabrafenib] | 97.9 | 99.3 | 93.5 | 93.1 | 102.1 | 99.8 | 100.7 | 101.4 | 97.8 | 93.9 | 99.0 | 97.6 | 46.6
3 | CCN1CCN(Cc2ccc(Nc3ncc(F)c(-c4cc(F)c5nc(C)n(C(C)C)c5c4)n3)nc2)CC1 [Abemaciclib] | 99.5 | 95.3 | 89.1 | 86.1 | 100.7 | 96.7 | 102.6 | 100.1 | 96.4 | 90.4 | 102.7 | 105.3 | 181
4 | CS(=O)(=O)c1ccc(C(=O)Nc2ccc(Cl)c(-c3ccccn3)c2)c(Cl)c1 [Vismodegib] | 105.1 | 109.2 | 84.9 | 85.6 | 108.4 | 107.5 | 96.6 | 99.7 | 103.4 | 77.6 | 103.2 | 94.1 | 11367
5 | C#Cc1cccc(Nc2ncnc3cc(OCCOC)c(OCCOC)cc23)c1 [Erlotinib] | 102.3 | 98.1 | – | 103.9 | 103.3 | 98.3 | 103.4 | 102.9 | 100.9 | 113.3 | 100.4 | 102.0 | 1011
6 | O=C(c1ccc(F)c(F)c1Nc1ccc(I)cc1F)N1CC(O)([C@@H]2CCCCN2)C1 [Cobimetinib] | 100.3 | 100.8 | 94.6 | 93.0 | 105.2 | 103.1 | 102.5 | 107.2 | 98.6 | 98.3 | 97.3 | 96.3 | 127
7 | CNC(=O)c1cc(Oc2ccc(NC(=O)Nc3ccc(Cl)c(C(F)(F)F)c3)cc2)ccn1 [Sorafenib] | 103.1 | 104.1 | 112.0 | 104.9 | 101.0 | 103.5 | 101.7 | 98.3 | 97.6 | 103.3 | 96.9 | 98.7 | 3750
8 | CCCS(=O)(=O)Nc1ccc(F)c(C(=O)c2c[nH]c3ncc(-c4ccc(Cl)cc4)cc23)c1F [Vemurafenib] | 103.5 | 102.3 | 112.7 | 109.4 | 99.5 | 101.8 | 104.1 | 99.4 | 98.2 | 101.9 | 97.5 | 99.2 | 39000
9 | N#CC[C@H](C1CCCC1)n1cc(-c2ncnc3[nH]ccc23)cn1 [Ruxolitinib] | 100.5 | 97.7 | 93.9 | 94.4 | 102.4 | 99.7 | 100.1 | 99.7 | 94.7 | 92.5 | 96.2 | 97.2 | 11.4
10 | C[C@]12CC[C@H](O)CC1=CC[C@@H]1[C@@H]2CC[C@]2(C)C(c3cccnc3)=CC[C@@H]12 [Abiraterone] | 98.9 | 97.9 | 90.8 | 94.9 | 104.6 | 101.6 | 100.2 | 104.1 | 104.5 | 105.9 | 101.5 | 100.2 | 9.3
11 | CN(C)C(=O)c1cc2cnc(Nc3ccc(N4CCNCC4)cn3)nc2n1C1CCCC1 [Ribociclib] | 103.0 | – | 84.0 | – | 104.1 | – | 89.8 | – | 103.9 | 86.3 | – | 92.4 | 732
12 | Cc1c(C(=O)Nc2ccc(N3C[C@@H](C)O[C@@H](C)C3)nc2)cccc1-c1ccc(OC(F)(F)F)cc1 [Sonidegib] | 101.5 | 101.9 | 109.3 | 100.0 | 99.4 | 101.1 | 101.3 | 98.1 | 97.9 | 103.7 | 96.5 | 99.0 | 890
13 | CS(=O)(=O)CCNCc1ccc(-c2ccc3ncnc(Nc4ccc(OCc5cccc(F)c5)c(Cl)c4)c3c2)o1 [Lapatinib] | 99.4 | 102.1 | 92.7 | 94.4 | 103.2 | 101.5 | 99.7 | 98.8 | 96.0 | 86.5 | 102.3 | 94.7 | 780
14 | CCN(CC)CCNC(=O)c1c(C)[nH]c(/C=C2\C(=O)Nc3ccc(F)cc32)c1C [Sunitinib] | 113.8 | 111.0 | 113.8 | 119.4 | 111.8 | 114.3 | 113.4 | 119.5 | 102.8 | 117.0 | 99.1 | 100.3 | 51.6
15 | C[C@@H](Oc1cc(-c2cnn(C3CCNCC3)c2)cnc1N)c1c(Cl)ccc(F)c1Cl [Crizotinib] | 105.2 | 103.5 | 88.1 | 86.1 | 108.4 | 103.8 | 96.5 | 94.7 | 94.8 | 72.2 | 102.4 | 92.4 | 274
16 | O=C1CCC(N2C(=O)c3ccccc3C2=O)C(=O)N1 (stereo not drawn) [Thalidomide] | 102.3 | 101.6 | 98.2 | 98.0 | 105.2 | 96.2 | 96.9 | 97.8 | 78.3 | 83.3 | 74.7 | 72.8 | 600
17 | Nc1cccc2c1C(=O)N(C1CCC(=O)NC1=O)C2=O (stereo not drawn) [Pomalidomide] | 104.1 | 103.5 | 104.9 | 96.5 | 104.5 | 97.7 | 100.5 | 97.9 | 90.9 | 74.4 | 90.1 | 92.4 | 10.9
18 | COc1cc2ncnc(Nc3ccc(F)c(Cl)c3)c2cc1NC(=O)/C=C/CN1CCCCC1 [Dacomitinib] | 102.5 | 99.5 | 93.3 | 92.3 | 104.5 | 100.5 | 98.4 | 98.0 | 92.5 | 89.8 | 95.9 | 96.3 | 73.1
19 | O=C(Nc1cnn2ccc(N3CCC[C@@H]3c3cc(F)ccc3F)nc12)N1CC[C@H](O)C1 [Larotrectinib] | 87.6 | 100.3 | 79.4 | 75.5 | 104.6 | 101.2 | 102.3 | 104.4 | 100.6 | 97.9 | 100.3 | 102.3 | 5.14
20 | COc1cc2nccc(Oc3ccc(NC(=O)C4(C(=O)Nc5ccc(F)cc5)CC4)cc3)c2cc1OC [Cabozantinib] | – | 103.4 | 92.0 | 94.0 | 105.6 | 103.5 | 98.7 | – | 99.6 | 90.2 | 102.2 | 95.0 | 1380
